Molecular target: T1, AbDHDPS (Acinetobacter baumannii, UniProt D0CFC3)
T1 sequence (D0CFC3 1-297): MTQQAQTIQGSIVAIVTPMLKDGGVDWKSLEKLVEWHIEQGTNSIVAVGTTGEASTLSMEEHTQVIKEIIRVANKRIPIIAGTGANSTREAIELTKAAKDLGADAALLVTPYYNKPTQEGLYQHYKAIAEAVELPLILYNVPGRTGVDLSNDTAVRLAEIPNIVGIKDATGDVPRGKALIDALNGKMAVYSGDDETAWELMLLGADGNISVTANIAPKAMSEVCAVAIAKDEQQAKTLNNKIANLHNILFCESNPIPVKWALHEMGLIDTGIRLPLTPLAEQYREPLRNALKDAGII
Assay: DHDPS-DHDPR coupled assay, NADPH oxidation at […] nm
Assay type: biochemical

CS(=O)(=O)NNc1ccccc1 [N’-phenylmethanesulfonohydrazide]
IC50: 35 µM

Reference: paper doi:10.1101/2022.02.10.480023v1 (biorxiv, 2022)
